Test results reported in article PMC8347512, “Synthesis and Biological Assessment of 4,1-Benzothiazepines with Neuroprotective Activity on the Ca^2+ Overload for the Treatment of Neurodegenerative Diseases and Stroke” (Molecules, 2021).
Read-outs that look alike come from different tables or passages of the source.

Legend:
NMDA receptors = experiment: Blockade of NMDA-evoked cytosolic Ca2+ elevation (Fluo-4/AM) in rat cortical neurons; type: cell-based
Protocol: (§1) The neuroblastoma SH-SY5Y cell line was obtained from the American Type Culture Collection (ATCC-CRL-2266), maintained and cultured in a 1:1 mixture of MEM and F12 media with 10% of fetal bovine serum (FBS), according to procedures previously described. For fluorescence-based [Ca^2+]c measurements, SH-SY5Y cells were seeded in clear-bottomed, 96-well black plates at a density of 40,000 cells/well. For viability assays, SH-SY5Y cells were seeded in 48-well plates at a density of 70,000 cells/well following the procedure recently reported. Rat cortical embryonic neurons were prepared from 19-day-old embryos directly seeded in the plate well treated with poly-D-lysine in neurobasal medium (Gibco 21103, Madrid, Spain) supplemented with 1% of L-glutamine (Sigma, G6392), 0.5% of penicillin/streptomycin and 0.1% of gentamincine. In fluorescence-based [Ca^2+]c measurement, neurons were seed at clear-bottomed, 96-well black plates at a density of 30,000 cells/well. For viability assays, the rat cortical neurons were also seeded in 48-well plates at a density of 40,000 cells/well. All the biological assays were conducted under sterile conditions.
To assess the blocking effect of compounds on the VGCC, we used SH-SY5Y cells charged with the Ca^2+-sensitive fluorescent dye Fluo-4/AM at 10 μM in Krebs-HEPES buffer, following a protocol recently described. Compounds were incubated at the desired concentrations (1, 3, 10, and 30 μM). The Ca^2+ entry was favored by addition of K^+ 70 mM to the extracellular medium. […] Rat cortical neurons were charged with Fluo-4/AM at 3 μM in Krebs-HEPES buffer and compounds incubated at same concentrations than before. To stimulate Ca^2+ entry through the NMDA-sensitive glutamate receptors, NMDA was applied at 10 μM. In both cases, fluorescence oscillations as result of the [Ca^2+]c increases were real-time monitored in a multi-well fluorescence plate reader (FluoStar Optima, BMG, Germany), with excitation and emission wavelengths of 485 and 520 nm, respectively. Data were calculated as fluorescence increase (ΔF), according to the formula: ΔF=Fx−Fo /Fmax−Fmin where Fx is the maximum fluorescence obtained after Ca^2+ entry stimulation, F0 is the averaged fluorescence before, Fmax is the maximum fluorescence of the well obtained by treating cells with 5% Triton X-100, and the Fmin is the minimum fluorescence of well obtained by adding MnCl2 1 M to the previously Triton-lysed cells. The ΔF data were normalized respect to the control (ΔFc).

VGCC = experiment: Blockade of 70 mM K+-evoked cytosolic Ca2+ elevation (Fluo-4/AM) in SH-SY5Y cells; type: cell-based; details: for Decrease of K+-evoked Ca2+ signaling compared with nifedipine: compounds 10 μM, nifedipine 10 μM
Protocol: as §1
To assess the blocking effect of compounds on the VGCC, we used SH-SY5Y cells charged with the Ca^2+-sensitive fluorescent dye Fluo-4/AM at 10 μM in Krebs-HEPES buffer, following a protocol recently described. Compounds were incubated at the desired concentrations (1, 3, 10, and 30 μM). The Ca^2+ entry was favored by addition of K^+ 70 mM to the extracellular medium. To evaluate the blocking effect of compounds on NMDA receptors, we have followed a protocol recently reported by our research group. Rat cortical neurons were charged with Fluo-4/AM at 3 μM in Krebs-HEPES buffer and compounds incubated at same concentrations than before. To stimulate Ca^2+ entry through the NMDA-sensitive glutamate receptors, NMDA was applied at 10 μM. In both cases, fluorescence oscillations as result of the [Ca^2+]c increases were real-time monitored in a multi-well fluorescence plate reader (FluoStar Optima, BMG, Germany), with excitation and emission wavelengths of 485 and 520 nm, respectively. Data were calculated as fluorescence increase (ΔF), according to the formula: ΔF=Fx−Fo /Fmax−Fmin where Fx is the maximum fluorescence obtained after Ca^2+ entry stimulation, F0 is the averaged fluorescence before, Fmax is the maximum fluorescence of the well obtained by treating cells with 5% Triton X-100, and the Fmin is the minimum fluorescence of well obtained by adding MnCl2 1 M to the previously Triton-lysed cells. The ΔF data were normalized respect to the control (ΔFc). Data are presented as percentage of blockade (100% ΔF) at the concentration of 10 μM, or as IC50, i.e., the concentration of compound capable of halving the ΔFc (%ΔF = 50).

[1] = Blood-brain barrier permeation assay (PAMPA), porcine brain lipid; type: in vitro ADME; details: read-out: Pe, in vitro permeability (PAMPA-BBB)
Protocol: The parallel artificial membrane permeation assay (PAMPA) was used to predict the capacity of compounds to cross the blood–brain barrier (BBB) by passive diffusion, in a similar manner as previously described. Compounds were dissolved in 10 mM phosphate-buffered saline (PBS) buffer (pH 7.4) to the concentration of 100 µM. The filter membrane of the donor 96-well plate (Multiscreen IP sterile clear plate PDVF membrane, pore size […]) was impregnated with 4 µL of porcine brain lipid (PBL) (Avanti Polar Lipids, Inc., Alabaster, AL, USA) in dodecane (20 mg/mL), and after 5 min, 180 µL of each compound solution was added. The acceptor 96-well plate (Multiscreen, Millipore Corp. Burlington, MA, USA) was filled with 180 µL of PBS and 1% of DMSO. Finally, the donor filter plate was carefully put on the acceptor plate to form a “sandwich”, which was left undisturbed for 4 h at rt. After incubation, an UV plate reader determined the concentration of compounds in both acceptor and donor wells (150 µL/well) as the maximum absorption wavelength of each compound. Concentration of the compounds in the donor and acceptor well, and equilibrium concentration were calculated from the standard curve and expressed as the permeability (Pe), according to the following formula: logPe=logC×−ln1−drugacceptor/drugequilibrium whereC=Vdonor×Vaceptor/Vdonor+Vaceptor×Area×Time)
Results are expressed as mean ± SEM of three different experiments in duplicate.

rat cortical neurons [2] = experiment: Per se toxicity, MTT reduction, rat cortical neurons; type: cell-based; details: 48 h
Protocol: as §1
The per se toxicity of the new synthetized compounds was assessed in both cell cultures by the method of MTT reduction. After 24 h of seeding, SH-SY5Y cells were preincubated with compounds at different concentrations (1, 3, 10, and 30 μM) for 24 h. Afterwards, MEM/F12 medium was replaced by one fresh with 1% FBS with the compounds at the same concentration. The viability of cultures was measured 20 h later, following a procedure recently described. In the case of rat cortical neurons, 7 days after seeding, compounds were added to the wells to reach a final concentration of 1, 3, 10, and 30 μM. Forty-eight hours later, neuron viability was measure by the same procedure as the one described for SH-SY5Y cells.

SH-SY5Y cells = experiment: Neuroprotection against rotenone/oligomycin A (R/O), MTT, SH-SY5Y cells; type: cell-based; details: R/O 30/10 μM, compounds 10 μM
Protocol: as §1
(§2) The effect of compounds on the SH-SY5Y cells and rat cortical neurons viability compromised of different toxics was also evaluated by method of MTT reduction. Twenty-four hours after seeding, SH-SY5Y cells were preincubated with compounds at the concentration of 10 μM for 24 h. Afterwards, MEM/F12 medium was replaced by one fresh with 1% FBS, compounds at the same concentration, and rotenone/oligomycin A administered to media at the concentration of 30/10 μM, respectively. The cultures’ viability was measured 20 h later, following the MTT procedure recently described. As reference neuroprotective compound, melatonin 10 nM was selected. In the case of the rat cortical neurons, 7 days after seeding in 48-well plates, neurons were preincubated adding the compounds at a final concentration of 10 μM for 24 h. Then, toxic stimuli of 50 µM of glutamate was added to the wells. After 20 h, cell viability was measured by the MTT procedure. Here, the reference protective compound used was memantine (30 nM).

rat cortical neurons [3] = experiment: Neuroprotection against glutamate 50 μM, MTT, rat cortical neurons; type: cell-based; details: compounds 10 μM
Protocol: as §1, §2

[4] = compounds 1 to 30 μM, Fluo-4/AM, read-out: IC50, concentration halving the 70 mM K+-evoked Ca2+ elevation
[5] = rat cortical embryonic neurons, NMDA 10 μM, compounds 1 to 30 μM; read-out: IC50, NMDA-evoked [Ca2+]c elevation
[6] = porcine brain lipid, pH 7.4, 4 h, rt, Pe ≥ 4 indicates passive BBB crossing

| Compound | IC50 (VGCC; [4]) | IC50 (NMDA receptors; [5]) | melting point | Effect on cell viability of rat cortical neurons at 30 μM (rat cortical neurons [2]) | further results |
| --- | --- | --- | --- | --- | --- |
| CC12CC3CC(C)(C1)CC(N)(C3)C2 [Memantine, memantine, reference compound] | – | – | – | – | IC50 (NMDA receptors; read-out: IC50, NMDA-evoked [Ca2+]c elevation; rat cortical embryonic neurons, NMDA 10 μM, compounds 1 to 30 μM): 17 µM |
| COC(=O)C1=C(C)NC(C)=C(C(=O)OC)C1c1ccccc1[N+](=O)[O-] [Nifedipine, nifedipine, reference compound] | 15 µM | – | – | – | – |
| O=C1CSC(c2ccc([N+](=O)[O-])cc2)c2cc(Cl)ccc2N1 (centres unmarked) [compound 14, 7-Chloro-5-(4′-nitrophenyl)-3,5-dihydro-4,1-benzothiazepin-2-(1H)-one] | 29.9 µM | > 30 µM | 289 to 291 °C | – | Papp at 4 h, 100 µM [1, 6]: < 4 ×10⁻⁶ cm/s |
| O=C1CSC(c2ccncc2)c2cc(Cl)ccc2N1 (centres unmarked) [compound 15, 7-Chloro-5-(pyridin-4-yl)-3,5-dihydro-4,1-benzothiazepin-2-(1H)-one] | 20 µM | > 30 µM | 224 to 226 °C | – | – |
| O=C1CSC(c2cccnc2)c2cc(Cl)ccc2N1 (centres unmarked) [compound 16, 7-Chloro-5-(pyridin-3-yl)-3,5-dihydro-4,1-benzothiazepin-2-(1H)-one] | > 30 µM | > 30 µM | 224 to 226 °C | – | – |
| O=C1CSC(c2ccccn2)c2cc(Cl)ccc2N1 (centres unmarked) [compound 17, 7-Chloro-5-(pyridin-2-yl)-3,5-dihydro-4,1-benzothiazepin-2-(1H)-one] | 24.7 µM | > 30 µM | 215 to 217 °C | – | – |
| O=C1CSC(c2ccncc2Cl)c2cc(Cl)ccc2N1 (centres unmarked) [compound 18, 7-Chloro-5-(3′-chloropyridin-4-yl)-3,5-dihydro-4,1-benzothiazepin-2-(1H)-one] | 11.5 µM | 28.3 µM | 226 to 229 °C | slightly reduced cell viability in a significant manner | Papp at 4 h, 100 µM ([1]; pH 7.4, threshold value of 40 nm/s): > 4 ×10⁻⁶ cm/s; Decrease of K+-evoked Ca2+ signaling compared with nifedipine (VGCC): in a similar manner or even better than the reference compound nifedipine |
| CN(C)c1ccc2c(c1)C(c1ccccc1Cl)SCC(=O)N2 (centres unmarked) [compound 26, 5-(2′-Chlorophenyl)-7-dimethylamino-3,5-dihydro-4,1-benzothiazepin-2-(1H)-one] | 25.4 µM | > 30 µM | 178 to 181 °C | slightly reduced cell viability in a significant manner | Papp at 4 h, 100 µM [1, 6]: < 4 ×10⁻⁶ cm/s; Protection against R/O-induced oxidative stress (in words) (SH-SY5Y cells): clear trend to protect against oxidative stress |
| COc1ccccc1C1SCC(=O)Nc2ccc(N(C)C)cc21 (centres unmarked) [compound 27, 7-Dimethylamino-5-(2′-methoxyphenyl)-3,5-dihydro-4,1-benzothiazepin-2-(1H)-one] | – | 18.5 µM | 233 to 236 °C | slightly reduced cell viability in a significant manner | Mitigation of the NMDA-elicited Ca2+ increase compared with memantine (NMDA receptors; rat cortical neurons, compounds 10 μM, memantine 10 μM): noticeable mitigation of the NMDA-elicited Ca^2+ increase, even higher than that exerted by the reference compound memantine; Protection against R/O-induced oxidative stress (in words) (SH-SY5Y cells): clear trend to protect against oxidative stress; IC50 (VGCC; read-out: IC50, concentration halving the 70 mM K+-evoked Ca2+ elevation, compounds 1 to 30 μM, Fluo-4/AM): 29.3 µM |
| CN(C)c1ccc2c(c1)C(c1ccc(F)cc1)SCC(=O)N2 (centres unmarked) [compound 28, 7-Dimethylamino-5-(4′-fluorophenyl)-3,5-dihydro-4,1-benzothiazepin-2-(1H)-one] | 19.5 µM | > 30 µM | 219 to 222 °C | slightly reduced cell viability in a significant manner | Protection against R/O-induced oxidative stress (in words) (SH-SY5Y cells): clear trend to protect against oxidative stress |
| O=C1CSC(c2ccc(F)cc2)c2ccccc2N1 (centres unmarked) [compound 32, 5-(4′-Fluorophenyl)-3,5-dihydro-4,1-benzothiazepin-2-(1H)-one] | 9.2 µM | > 30 µM | 251 to 254 °C | – | Protection against glutamate-elicited neurotoxicity (in words) (rat cortical neurons [3]): statistically significant dissipation of the glutamate-elicited neurotoxicity; Papp at 4 h, 100 µM [1, 6]: < 4 ×10⁻⁶ cm/s; Decrease of K+-evoked Ca2+ signaling compared with nifedipine (VGCC): in a similar manner or even better than the reference compound nifedipine |
